Test results published in patent US20150297579A1, “TREATMENT OF CANCER WITH POMALIDOMIDE IN A RENALLY IMPAIRED SUBJECT” (priority 2012, published 2015).

Tested on: patients with relapsed/refractory multiple myeloma (RRMM)
Assay: POM+LoDEX vs. HiDEX in RRMM: analysis of patients with moderate renal impairment
Assay type: in vivo, human
Experimental: Randomization was 2:1 to POM 4 mg (Day 1 to Day 21)+DEX 40 mg (20 mg for patients aged >75 y) qw; or DEX 40 mg (20 mg for patients aged >75 y) (Day 1-Day 4, Day 9-Day 12, and Day 17-Day 20) in a 28-D cycle. Treatment continued until PD or unacceptable adverse event (AE). The primary endpoint was progression-free survival (PFS). Secondary endpoints included overall survival (OS) and AEs. This analysis examined patients with or without moderate RI (CrCl<60 vs.≧60 mL/min).

## C[C@@H]1C[C@H]2[C@@H]3CCC4=CC(=O)C=C[C@]4(C)[C@@]3(F)[C@@H](O)C[C@]2(C)[C@@]1(O)C(=O)CO [HiDEX, (8S,9R,10S,11S,13S,14S,16R,17R)-9-fluoro-11,17-dihydroxy-17-(2-hydroxyacetyl)-10,13,16-trimethyl-6,7,8,9,10,11,12,13,14,15,16,17-dodecahydro-3H-cyclopenta[a]phenanthren-3-one]
CrCl <60 mL/min (moderate RI)
  Median OS (mo): 4.6 mo
  Median PFS (mo): 1.6 mo
CrCl ≧60 mL/min
  Median OS (mo): 9.2 mo
  Median PFS (mo): 1.8 mo
Moderate RI
  Discontinuation due to AE: 5%
  Gr 3/4 AE: anemia: 34%
  Gr 3/4 AE: infection: 24%
  Gr 3/4 AE: neutropenia: 15%
No moderate RI
  Discontinuation due to AE: 7%
Normal renal function
  Gr 3/4 AE: anemia: 26%
  Gr 3/4 AE: infection: 23%
  Gr 3/4 AE: neutropenia: 15%
